The values that follow are results of earlier work, collected in patent publication US20180051069A1, “COMPOSITIONS AND METHODS FOR TREATING ALLERGIC INFLAMMATION” (THE GENERAL HOSPITAL CORPORATION, priority 2015, published 2018).

Bounds are passed on as bounds.

The target in one series is T1, Golgi mannosidase II (Homo sapiens, UniProt Q16706).
T1 sequence (Q16706 1-1144): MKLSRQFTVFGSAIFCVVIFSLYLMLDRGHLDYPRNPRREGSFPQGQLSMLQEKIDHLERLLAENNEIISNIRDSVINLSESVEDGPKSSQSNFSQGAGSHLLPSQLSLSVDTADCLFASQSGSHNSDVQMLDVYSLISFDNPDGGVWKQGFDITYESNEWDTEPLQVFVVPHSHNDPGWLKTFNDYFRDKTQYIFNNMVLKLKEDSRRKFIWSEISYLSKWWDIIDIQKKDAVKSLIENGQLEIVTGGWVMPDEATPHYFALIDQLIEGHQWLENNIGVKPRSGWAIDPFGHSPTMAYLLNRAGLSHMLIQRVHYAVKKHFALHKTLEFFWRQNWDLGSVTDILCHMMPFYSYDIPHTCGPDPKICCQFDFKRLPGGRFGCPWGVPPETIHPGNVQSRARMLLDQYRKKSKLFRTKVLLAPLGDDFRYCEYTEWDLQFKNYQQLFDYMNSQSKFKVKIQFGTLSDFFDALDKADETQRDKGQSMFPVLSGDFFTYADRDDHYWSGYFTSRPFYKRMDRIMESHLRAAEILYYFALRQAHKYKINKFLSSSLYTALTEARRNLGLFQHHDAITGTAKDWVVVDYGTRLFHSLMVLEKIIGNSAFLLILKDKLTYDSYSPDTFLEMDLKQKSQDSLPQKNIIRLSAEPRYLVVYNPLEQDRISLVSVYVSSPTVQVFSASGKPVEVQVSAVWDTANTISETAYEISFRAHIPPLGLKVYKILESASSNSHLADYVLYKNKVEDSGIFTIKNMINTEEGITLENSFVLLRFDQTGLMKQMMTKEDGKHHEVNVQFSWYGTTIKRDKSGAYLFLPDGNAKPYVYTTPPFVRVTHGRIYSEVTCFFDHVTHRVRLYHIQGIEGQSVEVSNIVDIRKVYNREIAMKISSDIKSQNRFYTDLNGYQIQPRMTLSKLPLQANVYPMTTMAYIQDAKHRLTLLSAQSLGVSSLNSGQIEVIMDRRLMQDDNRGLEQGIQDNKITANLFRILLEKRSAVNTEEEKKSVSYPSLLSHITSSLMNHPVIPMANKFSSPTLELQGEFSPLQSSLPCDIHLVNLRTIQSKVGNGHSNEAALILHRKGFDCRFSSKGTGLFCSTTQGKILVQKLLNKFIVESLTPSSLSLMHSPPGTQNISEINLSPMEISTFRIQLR

Series [1] has as its system rat epididymal α-mannosidase.
Series [2] concerns alpha- or beta-galactosidase.
For series [3], the target named is alpha-glucosidase amyloglucosidase (Aspergillus niger, UniProt P69328). Particulars: read-out: 50% inhibition.
For series [4], the system named is alpha- or beta-mannosidase.

alpha-glucosidase amyloglucosidase, sequence (P69328 25-640): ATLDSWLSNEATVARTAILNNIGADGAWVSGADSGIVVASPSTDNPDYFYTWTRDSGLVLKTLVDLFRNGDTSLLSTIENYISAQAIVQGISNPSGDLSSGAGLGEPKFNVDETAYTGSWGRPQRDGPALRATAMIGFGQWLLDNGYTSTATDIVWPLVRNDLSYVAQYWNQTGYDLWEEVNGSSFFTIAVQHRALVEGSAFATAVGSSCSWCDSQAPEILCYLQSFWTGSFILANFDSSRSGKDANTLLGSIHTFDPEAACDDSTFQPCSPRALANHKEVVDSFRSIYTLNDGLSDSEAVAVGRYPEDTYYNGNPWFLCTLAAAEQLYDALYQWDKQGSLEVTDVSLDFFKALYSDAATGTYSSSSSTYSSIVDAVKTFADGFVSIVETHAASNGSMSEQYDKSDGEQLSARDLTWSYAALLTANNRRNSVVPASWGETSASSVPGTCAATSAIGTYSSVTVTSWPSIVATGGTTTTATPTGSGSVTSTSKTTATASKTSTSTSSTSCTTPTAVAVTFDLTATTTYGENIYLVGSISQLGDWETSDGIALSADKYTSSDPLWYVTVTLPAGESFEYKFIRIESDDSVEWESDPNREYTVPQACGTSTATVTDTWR

With `O[C@H]1[C@H]2[C@H](O)CCCN2C[C@H]1O` [Swainsonine], the “effect on mannosidase I” value in the series with mannosidase I is “no effect”. Besides, the “inhibition of Golgi mannosidase II” value on Golgi mannosidase II is on record as “potent inhibitor”.

Consider `CS[C@@H]1[C@@H](N)[C@@H](O)[C@@H](O)[C@H]1O` [Mannostatin A], for which the “inhibition of rat epididymal α-mannosidase” value in series [1] is listed as “reported to be an inhibitor”.

In the case of `OC[C@H]1NC[C@@H](O)[C@@H](O)[C@@H]1O` [Deoxymannojirimycin], in the series with rat liver mannosidase I, the “inhibition of rat liver mannosidase I” value is given as “inhibitor”. Also, in the series on cultured mammalian cells (intact cells), the “effect on synthesis of N-linked oligosaccharides” value was “blocked the synthesis of complex types of N-linked oligosaccharides”.

For `O[C@H]1[C@H](O)[C@@H](O)CN2CC[C@H](O)[C@H]12` [Castanospermine], the “inhibition of alpha-glucosidase activities” value in the series with alpha-glucosidase was “inhibits”.

As to `O=C1N[C@@H]2[C@@H](O)[C@@H](O)[C@H](O)[C@@H](CO)N2C1=O` [Kifunensine], the “effect on mannosidase I” value in the series on mannosidase I is “inhibits”. Besides, the “concentration causing complete shift of N-linked oligosaccharides from complex chains to Man9(GlcNAc)2 structures” value in the series with cultured mammalian cells (added to cultured mammalian cells) is not below 1 µg/mL.

As to `OC[C@@H]1[C@@H](O)[C@H](O)[C@H]2[C@@H](O)CCN21` [Australine], in the series with beta-glucosidase, the inhibition of beta-glucosidase entry is reported as “does not inhibit”. In series [2], the “inhibition of alpha- or beta-galactosidase” value is “does not inhibit”. In series [3], the IC50 is 5.8 µM. Further, in series [4], the “inhibition of alpha- or beta-mannosidase” value is “does not inhibit”.
